Values of other authors as cited in patent US20210361602A1, “DOSING METHODS FOR TREATING INFLAMMATORY BOWEL CONDITIONS” (priority 2020, published 2021).

Experiments:
[1] = enema by prior methods, two patients; Campieri et al. FIG. 4
[2] = orally administered; De Vos et al.

systemic (plasma) levels of 5-ASA after bowel movement [1]: dramatically lower
levels of 5-ASA in the colon after laxative or colonic lavage [2]: decreased
SMILES: Nc1ccc(O)c(C(=O)O)c1 [5-ASA, 5-aminosalicylic acid]
